Experimental data taken from ChEMBL document CHEMBL3232931 (J Med Chem, 2014).

Experiments:
SARS-CoV = assay: Antiviral activity against SARS coronavirus infected in african green monkey Vero E6 cells assessed as cell viability after 48 hrs by Cell Titer-Glo luminescent assay; assay type: functional, organism-based; conditions: Severe acute respiratory syndrome-related coronavirus
[1] = Cytotoxicity against african green monkey Vero E6 cells assessed as cell viability after 48 hrs by Cell Titer-Glo luminescent assay; assay type: cell-based; conditions: chlorocebus sabaeus
[2] = Therapeutic index, ratio of CC50 for african green monkey Vero E6 cells to EC50 for SARS coronavirus infected in african green monkey Vero E6 cells; assay type: cell-based; conditions: read-out: Ratio CC50/EC50
HEK293 = assay: Cytotoxicity against human HEK293 cells assessed as cell viability after 48 hrs by Cell Titer-Glo luminescent assay; assay type: cell-based; conditions: hek293, 48 h
[3] = Metabolic stability in mouse liver microsomes assessed as parent compound remaining at 1 uM after 15 mins; assay type: ADME; conditions: read-out: Stability
Liver = assay: Half life in mouse liver microsomes at 1 uM; assay type: ADME
[4] = (§1) Inhibition of SARS coronavirus papain-like protease (amino acids 1541 to 1855) expressed in Escherichia coli BL21 (DE3) cells assessed as decrease in AMC release using Z-RLRGG-AMC as substrate by multimode plate reader analysis; parameters: species or system Severe acute respiratory syndrome-related coronavirus
BL21-DE3 = assay: as §1; conditions: Severe acute respiratory syndrome-related coronavirus
[5] = molecular target: T1, Ubiquitin carboxyl-terminal hydrolase 2 (Homo sapiens) (UniProt O75604); assay: Inhibition of human USP2 using Ub-rhodamine 110 as substrate at 31 uM
T1 sequence (whole entry): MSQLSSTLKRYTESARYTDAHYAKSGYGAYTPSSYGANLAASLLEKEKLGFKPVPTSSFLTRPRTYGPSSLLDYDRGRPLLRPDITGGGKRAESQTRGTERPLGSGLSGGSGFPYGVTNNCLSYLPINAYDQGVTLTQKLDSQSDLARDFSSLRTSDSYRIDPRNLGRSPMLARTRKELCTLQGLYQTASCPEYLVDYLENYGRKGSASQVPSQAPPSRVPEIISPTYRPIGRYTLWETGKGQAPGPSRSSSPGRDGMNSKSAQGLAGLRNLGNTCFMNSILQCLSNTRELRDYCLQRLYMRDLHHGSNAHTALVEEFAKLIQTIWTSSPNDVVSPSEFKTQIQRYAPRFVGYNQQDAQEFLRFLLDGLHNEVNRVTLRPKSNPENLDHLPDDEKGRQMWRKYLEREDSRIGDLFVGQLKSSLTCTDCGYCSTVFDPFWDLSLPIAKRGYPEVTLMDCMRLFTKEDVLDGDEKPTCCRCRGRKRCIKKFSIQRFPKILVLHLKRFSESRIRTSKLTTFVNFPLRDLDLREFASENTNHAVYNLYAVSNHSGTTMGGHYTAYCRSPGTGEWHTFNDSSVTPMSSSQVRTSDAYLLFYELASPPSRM

[6] = molecular target: T2, Ubiquitin carboxyl-terminal hydrolase 7 (Homo sapiens, UniProt Q93009); assay: Inhibition of human USP7 using Ub-rhodamine 110 as substrate at 31 uM
Target sequence in this assay (Q93009 whole entry, looked up): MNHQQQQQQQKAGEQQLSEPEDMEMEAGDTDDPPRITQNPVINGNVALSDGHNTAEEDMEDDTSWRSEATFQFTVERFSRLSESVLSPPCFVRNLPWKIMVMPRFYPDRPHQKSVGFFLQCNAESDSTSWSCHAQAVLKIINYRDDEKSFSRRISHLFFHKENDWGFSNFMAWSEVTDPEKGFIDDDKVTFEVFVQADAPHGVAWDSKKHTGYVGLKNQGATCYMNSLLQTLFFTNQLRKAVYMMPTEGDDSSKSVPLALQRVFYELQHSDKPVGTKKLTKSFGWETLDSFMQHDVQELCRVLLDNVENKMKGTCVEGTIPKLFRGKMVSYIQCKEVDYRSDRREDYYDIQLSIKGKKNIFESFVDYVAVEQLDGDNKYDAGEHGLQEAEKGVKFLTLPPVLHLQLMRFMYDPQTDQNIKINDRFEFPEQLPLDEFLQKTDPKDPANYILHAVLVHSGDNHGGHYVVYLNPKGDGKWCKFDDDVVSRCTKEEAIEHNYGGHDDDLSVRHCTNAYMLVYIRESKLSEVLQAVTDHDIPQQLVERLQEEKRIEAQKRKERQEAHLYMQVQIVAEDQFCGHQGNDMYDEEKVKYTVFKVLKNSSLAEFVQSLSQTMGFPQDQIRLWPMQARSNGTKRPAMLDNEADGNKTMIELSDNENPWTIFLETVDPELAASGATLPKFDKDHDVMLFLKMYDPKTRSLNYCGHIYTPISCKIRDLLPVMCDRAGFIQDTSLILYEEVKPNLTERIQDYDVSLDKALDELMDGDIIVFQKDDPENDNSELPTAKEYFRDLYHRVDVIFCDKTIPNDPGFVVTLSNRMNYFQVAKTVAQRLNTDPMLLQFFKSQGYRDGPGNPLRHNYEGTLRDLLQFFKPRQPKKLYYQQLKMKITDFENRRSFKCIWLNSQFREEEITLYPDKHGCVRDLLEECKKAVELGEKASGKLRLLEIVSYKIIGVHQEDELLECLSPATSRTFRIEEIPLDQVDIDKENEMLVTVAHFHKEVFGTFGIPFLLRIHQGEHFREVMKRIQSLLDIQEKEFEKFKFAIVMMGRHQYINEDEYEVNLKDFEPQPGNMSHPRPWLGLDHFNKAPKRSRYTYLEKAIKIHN

[7] = molecular target: T3, Ubiquitin carboxyl-terminal hydrolase 21 (Homo sapiens) (UniProt Q9UK80); assay: Inhibition of human USP21 using Ub-rhodamine 110 as substrate at 31 uM
T3 sequence (whole entry): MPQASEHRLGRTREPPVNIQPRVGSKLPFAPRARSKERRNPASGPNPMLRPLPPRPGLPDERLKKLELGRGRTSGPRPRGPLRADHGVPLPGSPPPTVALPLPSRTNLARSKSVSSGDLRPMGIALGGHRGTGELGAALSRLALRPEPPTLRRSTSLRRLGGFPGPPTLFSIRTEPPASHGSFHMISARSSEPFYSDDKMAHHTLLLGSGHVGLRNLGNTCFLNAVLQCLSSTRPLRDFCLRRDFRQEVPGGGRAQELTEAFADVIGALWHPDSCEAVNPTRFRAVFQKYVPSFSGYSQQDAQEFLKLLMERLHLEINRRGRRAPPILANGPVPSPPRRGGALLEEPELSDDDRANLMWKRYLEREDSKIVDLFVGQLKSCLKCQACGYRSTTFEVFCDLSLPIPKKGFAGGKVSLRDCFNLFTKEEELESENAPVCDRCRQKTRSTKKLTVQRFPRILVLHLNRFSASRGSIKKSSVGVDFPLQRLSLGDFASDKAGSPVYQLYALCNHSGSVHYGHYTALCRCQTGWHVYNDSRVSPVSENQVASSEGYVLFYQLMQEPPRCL

[8] = molecular target: T4, Cathepsin K (Homo sapiens) (UniProt P43235); assay: Inhibition of human cathepsin K using fluorogenic peptide as substrate at 31 uM
T4 sequence (whole entry): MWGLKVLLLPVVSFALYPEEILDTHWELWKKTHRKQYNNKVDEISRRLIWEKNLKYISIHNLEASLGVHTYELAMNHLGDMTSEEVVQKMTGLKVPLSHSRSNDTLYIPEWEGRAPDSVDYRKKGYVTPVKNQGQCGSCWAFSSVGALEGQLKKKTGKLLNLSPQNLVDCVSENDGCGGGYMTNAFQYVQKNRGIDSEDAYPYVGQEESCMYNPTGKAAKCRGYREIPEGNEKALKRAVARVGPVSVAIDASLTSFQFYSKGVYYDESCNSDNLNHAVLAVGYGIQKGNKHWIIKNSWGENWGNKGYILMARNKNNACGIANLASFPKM

[9] = molecular target: T2, Ubiquitin carboxyl-terminal hydrolase 7; assay: Inhibition of human USP7 using Ub-rhodamine 110 as substrate
Target sequence in this assay (Q93009 whole entry): as the sequence (Q93009 whole entry, looked up) above

[10] = molecular target: Ubiquitin carboxyl-terminal hydrolase 20 (Homo sapiens, UniProt Q9Y2K6); assay: Inhibition of human USP20 using Ub-rhodamine 110 as substrate
[11] = molecular target: T5, Ubiquitin carboxyl-terminal hydrolase 21 (Homo sapiens, UniProt Q9UK80); assay: Inhibition of human USP21 using Ub-rhodamine 110 as substrate
T5 sequence (Q9UK80 whole entry): T3 sequence (whole entry)

Caspase-3 = molecular target: T6, Caspase-3 (Homo sapiens, UniProt P42574); assay: Inhibition of human caspase-3 using fluorogenic peptide as substrate
T6 sequence (P42574 whole entry): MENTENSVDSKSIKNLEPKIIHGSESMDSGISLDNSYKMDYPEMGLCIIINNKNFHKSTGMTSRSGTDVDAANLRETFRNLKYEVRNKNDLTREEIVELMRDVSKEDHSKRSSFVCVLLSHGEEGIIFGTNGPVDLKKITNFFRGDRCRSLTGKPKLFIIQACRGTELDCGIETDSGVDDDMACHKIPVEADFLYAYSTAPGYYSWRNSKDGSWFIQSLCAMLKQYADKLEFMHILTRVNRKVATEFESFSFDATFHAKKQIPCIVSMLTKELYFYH

[12] = molecular target: Replicase polyprotein 1a (Human coronavirus NL63) (UniProt P0C6U6); assay: (§2) Inhibition of human coronavirus NL63 PLP2 (amino acids 1565 to 1894) expressed in Escherichia coli BL21 (DE3) cells assessed as reduction of AMC release using Z-RLRGG-AMC as substrate by multimode plate reader analysis
Replicase polyprotein 1a = Replicase polyprotein 1a (Human coronavirus NL63, UniProt P0C6U6); assay: as §2
Sequence of Replicase polyprotein 1a (P0C6U6 899-2462 limits assumed): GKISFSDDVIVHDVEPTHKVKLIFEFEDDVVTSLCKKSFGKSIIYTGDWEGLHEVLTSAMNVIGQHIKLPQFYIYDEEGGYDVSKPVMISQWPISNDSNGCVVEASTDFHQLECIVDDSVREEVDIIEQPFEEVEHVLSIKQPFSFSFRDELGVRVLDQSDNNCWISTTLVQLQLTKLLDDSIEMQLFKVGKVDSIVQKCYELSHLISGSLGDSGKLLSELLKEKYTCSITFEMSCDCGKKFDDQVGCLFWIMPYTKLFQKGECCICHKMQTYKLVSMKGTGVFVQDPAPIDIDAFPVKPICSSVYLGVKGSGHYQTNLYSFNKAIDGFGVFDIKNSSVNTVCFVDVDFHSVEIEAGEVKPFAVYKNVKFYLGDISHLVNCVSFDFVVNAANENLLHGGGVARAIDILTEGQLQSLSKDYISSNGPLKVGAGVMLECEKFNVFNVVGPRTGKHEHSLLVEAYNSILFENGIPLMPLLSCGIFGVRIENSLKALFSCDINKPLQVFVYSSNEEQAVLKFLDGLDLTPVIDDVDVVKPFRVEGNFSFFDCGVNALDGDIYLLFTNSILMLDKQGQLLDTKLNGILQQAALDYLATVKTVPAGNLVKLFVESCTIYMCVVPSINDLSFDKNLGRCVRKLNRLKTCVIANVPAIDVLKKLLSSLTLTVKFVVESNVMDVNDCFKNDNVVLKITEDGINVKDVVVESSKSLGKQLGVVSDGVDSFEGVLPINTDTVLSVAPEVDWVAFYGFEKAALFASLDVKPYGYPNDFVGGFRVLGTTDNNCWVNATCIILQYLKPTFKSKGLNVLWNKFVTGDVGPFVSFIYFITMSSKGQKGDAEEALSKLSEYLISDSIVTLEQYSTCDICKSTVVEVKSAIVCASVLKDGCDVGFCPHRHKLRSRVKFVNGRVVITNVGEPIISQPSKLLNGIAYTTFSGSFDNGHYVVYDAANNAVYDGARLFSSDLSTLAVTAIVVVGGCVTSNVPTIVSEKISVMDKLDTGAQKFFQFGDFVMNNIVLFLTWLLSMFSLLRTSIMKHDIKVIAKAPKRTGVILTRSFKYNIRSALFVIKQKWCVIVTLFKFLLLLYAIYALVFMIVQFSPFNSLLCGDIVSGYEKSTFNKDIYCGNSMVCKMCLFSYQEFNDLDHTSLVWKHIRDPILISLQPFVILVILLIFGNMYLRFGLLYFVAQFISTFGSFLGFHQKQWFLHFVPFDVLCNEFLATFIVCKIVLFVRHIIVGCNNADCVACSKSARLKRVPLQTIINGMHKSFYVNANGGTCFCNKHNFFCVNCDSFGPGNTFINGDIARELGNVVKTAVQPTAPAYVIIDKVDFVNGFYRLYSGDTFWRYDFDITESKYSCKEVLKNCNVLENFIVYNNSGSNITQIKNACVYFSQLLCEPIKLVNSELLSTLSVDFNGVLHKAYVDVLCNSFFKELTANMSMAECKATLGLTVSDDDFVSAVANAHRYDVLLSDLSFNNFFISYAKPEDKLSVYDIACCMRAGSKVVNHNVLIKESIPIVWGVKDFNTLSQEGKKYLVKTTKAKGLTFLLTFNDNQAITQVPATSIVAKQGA

Sequence of Replicase polyprotein 1a (Human coronavirus NL63) (P0C6U6 899-2462 limits assumed): as above

SMILES | EC50 (SARS-CoV) | CC50 [1] | selectivity ratio [2] | CC50 (HEK293) | remaining at 0.25 h, 1 µM [3] | t1/2 (Liver) | IC50 [4] | Imax (BL21-DE3) | inhibition [5] | inhibition [6] | inhibition [7] | inhibition [8] | IC50 ([9]; read-out: IC50) | IC50 ([10]; read-out: IC50) | IC50 [11] | IC50 (Caspase-3) | Imax [12] | IC50 (Replicase polyprotein 1a) | IC50 [9] | IC50 [10]
CC(=O)Nc1cccc(CNC(=O)C2CCN([C@H](C)c3cccc4ccccc34)CC2)c1 | 8.3 µM | > 100 µM | > 12 | 68 µM | 20% | 7 min | 390 nM | 100% | 10% | 10% | 15% | < 10% | > 100 µM | > 100 µM | > 31 µM | Not Active | 71% | 46 µM |  | 
C[C@H](c1cccc2ccccc12)N1CCC(C(=O)NCc2cccc(F)c2)CC1 | 5.4 µM | > 100 µM | > 18.5 | 73 µM | 1.2% | 2.8 min | 150 nM | 100% | < 10% | < 10% | 15% | < 10% |  | > 100 µM | > 31 µM | Not Active | 57% | 33 µM | Not Active | 
C[C@H](c1cccc2ccccc12)N1CCC(C(=O)NCc2ccc(F)cc2)CC1 | 11.6 µM | > 100 µM | > 8.6 | 73 µM |  |  | 490 nM |  | < 10% | < 10% | 15% | < 10% |  | > 100 µM | > 31 µM | Not Active |  |  | Not Active | 
C[C@H](c1cccc2ccccc12)N1CCC(C(=O)NCc2ccc3c(c2)OCO3)CC1 | 12.8 µM | > 100 µM |  | > 100 µM | 0.2% | 1.6 min | 670 nM | 99% | < 10% | < 10% | 15% | < 10% |  |  | > 31 µM | Not Active | 46% | 18 µM | Not Active | Not Active
